According to ChEMBL document CHEMBL3856187, “Cyclin Dependent Kinase 9 Inhibitors for Cancer Therapy” (J Med Chem, 2016):

How the values were obtained:
[1] = Cytotoxicity against human HeLa cells assessed as decrease in cell viability after 72 hrs by MTT assay; type: toxicity, cell-based
CDK9/cyclin T1 [2] = molecular target: T1, CDK9/cyclin T1 (Homo sapiens, UniProt P50750); assay: Inhibition of human His6-tagged CDK9/cyclin T1 expressed in baculovirus infected sf9 cells using GST-CTD as substrate after 10 mins in presence of [gamma-32P]ATP by SDS-PAGE analysis
T1 sequence (O60563 whole entry): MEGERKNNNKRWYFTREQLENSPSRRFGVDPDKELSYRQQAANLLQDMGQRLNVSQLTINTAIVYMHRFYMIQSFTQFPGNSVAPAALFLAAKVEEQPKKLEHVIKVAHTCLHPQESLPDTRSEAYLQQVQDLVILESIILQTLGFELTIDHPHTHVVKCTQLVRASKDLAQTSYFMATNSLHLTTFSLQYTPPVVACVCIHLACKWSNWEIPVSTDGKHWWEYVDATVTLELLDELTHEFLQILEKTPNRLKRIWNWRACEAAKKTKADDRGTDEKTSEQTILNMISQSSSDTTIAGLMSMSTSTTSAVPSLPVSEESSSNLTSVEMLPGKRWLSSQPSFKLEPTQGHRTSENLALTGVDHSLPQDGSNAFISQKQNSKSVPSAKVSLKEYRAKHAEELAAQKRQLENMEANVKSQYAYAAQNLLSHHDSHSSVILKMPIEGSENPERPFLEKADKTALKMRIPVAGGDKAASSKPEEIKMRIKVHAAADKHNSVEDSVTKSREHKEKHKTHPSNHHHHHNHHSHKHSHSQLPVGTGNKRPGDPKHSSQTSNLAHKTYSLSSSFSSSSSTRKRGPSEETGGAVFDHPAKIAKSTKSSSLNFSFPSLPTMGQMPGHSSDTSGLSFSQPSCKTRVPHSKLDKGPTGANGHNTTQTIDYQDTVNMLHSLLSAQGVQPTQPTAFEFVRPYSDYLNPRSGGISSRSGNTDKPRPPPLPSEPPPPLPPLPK
T1 sequence (P50750 whole entry): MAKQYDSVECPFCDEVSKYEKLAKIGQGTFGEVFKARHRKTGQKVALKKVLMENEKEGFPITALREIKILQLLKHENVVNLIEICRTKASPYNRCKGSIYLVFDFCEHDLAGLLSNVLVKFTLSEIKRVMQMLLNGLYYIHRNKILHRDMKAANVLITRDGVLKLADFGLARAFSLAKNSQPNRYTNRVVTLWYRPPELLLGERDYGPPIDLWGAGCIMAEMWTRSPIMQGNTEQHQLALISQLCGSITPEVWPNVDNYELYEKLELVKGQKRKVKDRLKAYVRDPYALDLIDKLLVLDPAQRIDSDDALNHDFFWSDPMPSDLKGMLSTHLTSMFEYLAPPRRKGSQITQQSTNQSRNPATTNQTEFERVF

CDK2/Cyclin A2 = CDK2/Cyclin A2 (Homo sapiens, UniProt P24941); assay: Inhibition of human full length C-terminal His6-tagged CDK2/N-terminal GST-tagged cyclin A using histone H1 as substrate after 10 mins by [gamma-32P]ATP based binding assay; type: protein-complex assay
[3] = molecular target: CDK9/cyclin T1 (Homo sapiens) (UniProt O60563+P50750); assay: Inhibition of human CDK9/cyclin T1 by radiometric assay relative to control; type: protein-complex assay; design: concentration or dose not given beside the values; details: concentration not given here
[4] = molecular target: CDK9/Cyclin K (Homo sapiens) (UniProt P50750+O75909); assay: Inhibition of human CDK9/cyclin K by radiometric assay relative to control; type: protein-complex assay; design: concentration or dose not given beside the values; details: concentration not given here
CDK9/cyclin T1 [5] = molecular target: T1, CDK9/cyclin T1; assay: Inhibition of recombinant human His-tagged CDK9/cyclin T1 expressed in baculovirus infected sf9 cells using (biotinyl-Ahx-(Tyr-Ser-ProThr-Ser-Pro-Ser)4-NH2 as substrate after 45 mins by [gamma-32P]ATP based microbeta scintillation counting analysis
[6] = molecular target: Cyclin-dependent kinase 1 (Homo sapiens, UniProt P06493); assay: Inhibition of CDK1 (unknown origin)
Sequence of Cyclin-dependent kinase 1 (P06493 whole entry): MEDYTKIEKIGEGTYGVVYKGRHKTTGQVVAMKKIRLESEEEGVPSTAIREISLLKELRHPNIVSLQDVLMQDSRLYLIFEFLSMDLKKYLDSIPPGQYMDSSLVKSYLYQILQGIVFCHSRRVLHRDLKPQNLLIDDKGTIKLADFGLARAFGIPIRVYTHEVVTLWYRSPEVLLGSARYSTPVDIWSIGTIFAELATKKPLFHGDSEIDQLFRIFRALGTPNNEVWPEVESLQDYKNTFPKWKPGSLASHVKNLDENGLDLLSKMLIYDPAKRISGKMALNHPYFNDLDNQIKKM

[7] = molecular target: Cyclin-dependent kinase 5 (Homo sapiens, UniProt Q00535); assay: Inhibition of CDK5 (unknown origin)
Sequence of Cyclin-dependent kinase 5 (Q00535 whole entry): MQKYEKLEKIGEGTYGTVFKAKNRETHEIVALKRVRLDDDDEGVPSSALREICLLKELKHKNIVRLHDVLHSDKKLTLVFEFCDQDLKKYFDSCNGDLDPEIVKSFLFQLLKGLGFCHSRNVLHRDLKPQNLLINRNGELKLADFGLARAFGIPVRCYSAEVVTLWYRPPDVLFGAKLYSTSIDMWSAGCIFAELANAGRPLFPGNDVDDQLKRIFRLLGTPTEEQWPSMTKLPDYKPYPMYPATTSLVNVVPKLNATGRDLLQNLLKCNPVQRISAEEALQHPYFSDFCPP

[8] = molecular target: Cyclin-dependent kinase 9 (Homo sapiens, UniProt P50750); assay: Inhibition of human CDK9 (unknown origin)
Sequence of Cyclin-dependent kinase 9 (P50750 whole entry, the tested form may be a part): as the sequence (P50750 whole entry) above

[9] = molecular target: Cyclin-dependent kinase 2 (Homo sapiens, UniProt P24941); assay: Binding affinity to full length human CDK2 (1 to 298 residues) expressed in bacterial expression system by KINOMEscan competition assay
[10] = molecular target: Cyclin-dependent kinase 3 (Homo sapiens, UniProt Q00526); assay: Inhibition of CDK3 (unknown origin)
Sequence of Cyclin-dependent kinase 3 (Q00526 whole entry): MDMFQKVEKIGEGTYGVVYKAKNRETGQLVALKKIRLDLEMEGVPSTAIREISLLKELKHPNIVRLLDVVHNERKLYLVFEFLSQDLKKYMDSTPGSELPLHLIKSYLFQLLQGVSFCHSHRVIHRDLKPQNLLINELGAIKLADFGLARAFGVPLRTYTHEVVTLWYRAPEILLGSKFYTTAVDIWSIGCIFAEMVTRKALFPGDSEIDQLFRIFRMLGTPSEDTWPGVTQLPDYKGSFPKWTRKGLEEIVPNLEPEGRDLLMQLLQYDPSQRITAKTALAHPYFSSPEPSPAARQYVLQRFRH

[11] = molecular target: Cyclin-dependent kinase 4 (Homo sapiens, UniProt P11802); assay: Inhibition of CDK4 (unknown origin)
Sequence of Cyclin-dependent kinase 4 (P11802 whole entry): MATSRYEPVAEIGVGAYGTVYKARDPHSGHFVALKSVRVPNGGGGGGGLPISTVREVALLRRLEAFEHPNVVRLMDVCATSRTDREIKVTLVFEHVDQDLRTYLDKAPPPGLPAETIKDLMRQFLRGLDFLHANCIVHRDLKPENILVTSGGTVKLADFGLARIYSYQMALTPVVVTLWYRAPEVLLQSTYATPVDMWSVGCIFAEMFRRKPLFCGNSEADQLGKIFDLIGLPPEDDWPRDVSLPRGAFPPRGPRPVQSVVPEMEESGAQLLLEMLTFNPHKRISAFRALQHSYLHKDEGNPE

[12] = Inhibition of M-phase starfish oocytes CDK1/cyclin B after 30 mins by [gamma-33P]ATP based scintillation counting analysis; design: species or system Asteroidea
[13] = molecular target: T2, Cyclin-dependent kinase 5/CDK5 activator 1 (Homo sapiens, UniProt Q00535); assay: Inhibition of human recombinant CDK5/p25 expressed in baculovirus infected Sf9 insect cells after 30 mins by [gamma-33P]ATP based scintillation counting analysis
T2 sequence (Q00535 whole entry): as the sequence (Q00535 whole entry) above
T2 sequence (Q15078 whole entry, further chain): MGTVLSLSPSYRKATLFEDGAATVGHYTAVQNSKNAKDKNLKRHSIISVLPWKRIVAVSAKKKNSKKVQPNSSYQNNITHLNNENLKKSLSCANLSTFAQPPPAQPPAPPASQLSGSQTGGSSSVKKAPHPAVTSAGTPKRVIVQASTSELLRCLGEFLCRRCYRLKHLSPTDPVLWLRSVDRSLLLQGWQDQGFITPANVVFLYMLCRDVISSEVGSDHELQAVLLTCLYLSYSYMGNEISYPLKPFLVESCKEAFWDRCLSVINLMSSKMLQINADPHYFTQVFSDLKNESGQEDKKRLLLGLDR

[14] = Inhibition of CDK6/cyclin D (unknown origin); design: species or system Homo sapiens
CDK8/Cyclin C = CDK8/Cyclin C (Homo sapiens, UniProt P49336); assay: Inhibition of CDK8/cyclin C (unknown origin) using RBER-CHKStide as substrate after 60 mins in presence of 33P-ATP by microbeta scintillation counting analysis; type: protein-complex assay
CDK7/Cyclin H/MNAT1 = CDK7/Cyclin H/MNAT1 (Homo sapiens, UniProt P50613); assay: Inhibition of recombinant human full length C-terminal His6-tagged CDK7/cyclin H/N-terminal GST-tagged MAT1 expressed in baculovirus infected Sf21 insect cells using CDK7/9ptide as substrate after 60 mins in presence of 33P-ATP by microbeta scintillation counting analysis
[15] = molecular target: Cyclin-dependent kinase 2/cyclin E1 (Homo sapiens, UniProt P24941); assay: Inhibition of recombinant human His6-tagged CDK2/cyclin E expressed in baculovirus infected sf9 cells using histone H1 susbtrate in presence of [gamma32P]ATP after 10 mins by scintillation counting method
[16] = molecular target: Tyrosine-protein kinase JAK2 (Homo sapiens, UniProt O60674); assay: Inhibition of human recombinant GST-tagged JAK2 expressed in baculovirus expression system
CDK9/cyclin T1 [17] = molecular target: T1, CDK9/cyclin T1; assay: Inhibition of recombinant human full length C-terminal His6-tagged CDK9/cyclin T1 expressed in baculovirus infected Sf21 insect cells using 5TAMRA-cdk7tide as substrate after 4.5 hrs by IMAP assay
CDK2/Cyclin A1 = CDK2/Cyclin A1 (Homo sapiens, UniProt P24941); assay: Inhibition of recombinant human His/GST-tagged CDK2/Cyclin A expressed in baculovirus infected Sf9 cells using Histone H1 as substrate after 80 mins in presence of [33P]ATP by microbeta scintillation counting analysis
[18] = molecular target: Cyclin-dependent kinase 1/cyclin B1 (Homo sapiens, UniProt P06493); assay: Inhibition of recombinant human CDK1/cyclin B expressed in baculovirus infected Sf9 insect cells after 80 mins in presence of [33P]ATP by microbeta scintillation counting analysis
Sequence of Cyclin-dependent kinase 1/cyclin B1 (P06493 whole entry): as the sequence (P06493 whole entry) above
Sequence of Cyclin-dependent kinase 1/cyclin B1 (P14635 whole entry, further chain): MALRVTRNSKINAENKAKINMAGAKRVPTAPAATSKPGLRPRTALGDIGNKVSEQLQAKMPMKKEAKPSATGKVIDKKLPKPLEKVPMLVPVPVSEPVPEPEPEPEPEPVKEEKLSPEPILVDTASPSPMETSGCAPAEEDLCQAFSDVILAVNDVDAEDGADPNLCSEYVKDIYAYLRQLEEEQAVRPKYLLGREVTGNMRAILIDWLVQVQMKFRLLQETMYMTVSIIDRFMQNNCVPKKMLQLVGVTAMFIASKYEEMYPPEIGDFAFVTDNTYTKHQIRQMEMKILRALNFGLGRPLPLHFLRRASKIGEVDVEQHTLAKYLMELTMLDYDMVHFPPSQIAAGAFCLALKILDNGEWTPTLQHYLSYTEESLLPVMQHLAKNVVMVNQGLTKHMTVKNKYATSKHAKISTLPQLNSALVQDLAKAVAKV

CDK3/Cyclin E = CDK3/Cyclin E (Homo sapiens, UniProt Q00526); assay: Inhibition of recombinant human CDK3/cyclin E expressed in baculovirus infected Sf9 insect cells after 80 mins in presence of [33P]ATP by microbeta scintillation counting analysis
Sequence of CDK3/Cyclin E (P24864 whole entry): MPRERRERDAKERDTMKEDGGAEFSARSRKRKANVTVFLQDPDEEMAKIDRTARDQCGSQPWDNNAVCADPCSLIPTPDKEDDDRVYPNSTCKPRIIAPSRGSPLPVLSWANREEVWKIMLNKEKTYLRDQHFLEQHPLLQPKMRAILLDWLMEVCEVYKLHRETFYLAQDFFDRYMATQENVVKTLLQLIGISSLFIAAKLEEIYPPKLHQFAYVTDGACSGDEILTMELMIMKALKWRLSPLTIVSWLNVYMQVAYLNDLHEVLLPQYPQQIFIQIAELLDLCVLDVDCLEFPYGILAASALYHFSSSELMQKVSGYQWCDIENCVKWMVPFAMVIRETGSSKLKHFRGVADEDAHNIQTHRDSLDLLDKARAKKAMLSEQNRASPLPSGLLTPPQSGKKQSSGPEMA
Sequence of CDK3/Cyclin E (Q00526 whole entry): as the sequence (Q00526 whole entry) above

[19] = molecular target: T2, Cyclin-dependent kinase 5/CDK5 activator 1; assay: Inhibition of recombinant human His/GST-tagged CDK5/p35 expressed in baculovirus infected Sf9 insect cells using Rb-CTF as substrate after 80 mins in presence of [33P]ATP by microbeta scintillation counting analysis
CDK9/cyclin T1 [20] = molecular target: T1, CDK9/cyclin T1; assay: Inhibition of human recombinant CDK9/cyclin T expressed in baculovirus infected Sf9 insect cells using pRB (773 to 928 residues) as substrate after 30 mins by [gamma-33P]ATP based scintillation counting analysis
[21] = Antiproliferative activity against human HeLa cells after 4 days by crystal violet staining based assay; type: functional, cell-based; details: 96 h
[22] = Antiproliferative activity against human H460 cells after 4 days by crystal violet staining based assay; type: functional, cell-based; details: NCI-H460, 96 h
[23] = Antiproliferative activity against mouse B16F10 cells after 4 days by crystal violet staining based assay; type: functional, cell-based; details: B16-F10, 96 h
[24] = Antiproliferative activity against human HeLa/MaTu/ADR cells after 4 days by crystal violet staining based assay; type: functional, cell-based; details: 96 h

## CN1CC[C@H](c2c(O)cc(O)c3c(=O)cc(-c4ccncc4)oc23)[C@H](O)C1
[1]
  CC50 at 72 h: 3350 nM
CDK9/cyclin T1 [2]
  IC50: 6.5 nM
CDK2/Cyclin A2
  IC50: 208 nM

## CN[C@H]1C[C@@H]2O[C@@](C)(C3c4ccccc4-c4c5c(c6c(c43)C2c2ccccc2-6)C(=O)NC5=O)[C@H]1OC (stereo partly specified)
[3]
  inhibition: > 75%
[4]
  inhibition: > 75%

## Cc1c(-c2ccnc(Nc3ccc(N4CCNCC4)cc3)n2)sc(=O)n1C
CDK9/cyclin T1 [5]
  Ki: 0.4 nM

## COc1ccccc1-c1cc(Nc2ccc(F)c(NS(C)(=O)=O)c2)ncn1
[6]
  Ki: > 1000 nM
[7]
  Ki: > 1000 nM
[8]
  Ki: 17 nM
[9]
  Ki: > 1000 nM
[10]
  Ki: > 1000 nM
[11]
  Ki: > 1000 nM

## CN1CC[C@H](c2c(O)cc(O)c3c(=O)cc(-c4ccccc4)oc23)[C@H](O)C1
[1]
  CC50 at 72 h: 190 nM
CDK9/cyclin T1 [2]
  IC50: 9 nM
CDK2/Cyclin A2
  IC50: 196 nM

## COc1ccnc2c1c(-c1ccnc(N)n1)cn2C [MERIOLIN 9]
[12]
  IC50: > 10000 nM
[13]
  IC50: > 10000 nM

## CN1CC[C@H](c2c(O)cc(O)c3c(=O)cc(-c4ccccc4F)oc23)[C@H](O)C1
[1]
  CC50 at 72 h: 274 nM
CDK9/cyclin T1 [2]
  IC50: 2.8 nM
CDK2/Cyclin A2
  IC50: 357 nM

## CC(C)(C)c1cnc(CSc2cnc(NC(=O)C3CCNCC3)s2)o1 [BMS-387032]
[14]
  IC50: > 1000 nM

## CC(C)c1c2cc(-c3ccnc(N[C@H]4CC[C@H](NC5CCOCC5)CC4)n3)ccc2nn1C
CDK8/Cyclin C
  IC50: 16 nM
CDK7/Cyclin H/MNAT1
  IC50: 246 nM

## O=C(NC1CCNCC1)c1n[nH]cc1NC(=O)c1c(Cl)cccc1Cl [AT-7519]
[14]
  Ki: 660 nM

## CN1CC[C@H](c2c(O)cc(O)c3c(=O)cc(-c4ccc(O)cc4)oc23)[C@H](O)C1
[1]
  CC50 at 72 h: 20900 nM
CDK9/cyclin T1 [2]
  IC50: 9.6 nM
CDK2/Cyclin A2
  IC50: 196 nM

## CN1CC[C@H](c2c(O)cc(O)c3c(=O)cc(-c4ccc(Br)cc4)oc23)[C@H](O)C1
[1]
  CC50 at 72 h: 280 nM
CDK9/cyclin T1 [2]
  IC50: 5.5 nM
CDK2/Cyclin A2
  IC50: 224 nM

## O=C1CC/C=C\COc2cccc(c2)-c2ccnc(n2)Nc2cccc(c2)N1
[15]
  IC50: 2600 nM
[16]
  IC50: 1700 nM

## NCCCNc1cc(-c2cncc(NCC3CCOCC3)c2)c(Cl)cn1
CDK9/cyclin T1 [17]
  IC50: 1860 nM

## COc1cc(F)ccc1-c1ccnc(NC(=O)[C@H]2CCC[C@@H](NC(C)=O)C2)c1
CDK2/Cyclin A1
  IC50: 94 to 1080 nM
[18]
  IC50: 94 to 1080 nM
CDK3/Cyclin E
  IC50: 94 to 1080 nM
[19]
  IC50: 94 to 1080 nM

## OCCNc1cc(-c2cncc(NCc3cccc(F)c3)c2)c(Cl)cn1
CDK9/cyclin T1 [17]
  IC50: 8 nM

## CCCOc1ccnc2[nH]cc(-c3ccnc(N)n3)c12 [MERIOLIN 5]
[12]
  IC50: 7 nM
CDK9/cyclin T1 [20]
  IC50: 6 nM

## CS(=O)(=O)Cc1cccc(Nc2ncnc(-c3ccc(F)cc3OCc3ccccc3)n2)c1
[21]
  IC50: 100 nM
[22]
  IC50: 150 nM
[23]
  IC50: 130 nM
[24]
  IC50: 100 nM

## O=C1Cc2c([nH]c3ccc([N+](=O)[O-])cc23)-c2ccccc2N1
[3]
  inhibition: > 75%
[4]
  inhibition: > 75%
